Common to all, as to format: cell-based
Test [1] relates to Pseudomonas aeruginosa ATCC 15442. Nature of the test: Suspension test of compound in surfactants and shampoo. The settings on record: 24 h, start 10^5 cfu/ml. The method, then:
(§1) The following examples illustrate the invention. Unless indicated otherwise, percentages refer to percent by weight (b.w.), room temperature denotes a temperature from the range 20-24° C. The determination of bactericidal activity and fungicidal activity in surfactants or shampoo formulations of the present invention is measured in a suspension test according to trivial modifications of the European Standard methods EN 1040 and EN 1275, respectively. The compound of the invention is incorporated in an anionic surfactant, for example sodium laureth sulphate (Epicol ESB 70), or a non-ionic surfactant such as decyl glucoside (Plantacare 2000UP), or an amphoteric surfactant, for example cocamidopropyl betaine (Tego Betain F50). Each of the surfactants is tested at 10% a.i. Furthermore, the 5-amino-salicylic acid derivatives of the invention are incorporated in a typical shampoo formulation with the following composition: • 0.01 to 5% by weight of 5 amino-salicylic acid derivative, • 7.0% by weight sodium laureth-2-sulfate, • 2.5% by weight decyl glucoside • 4.0% by weight cocamidopropyl betaine, • 1.0% by weight NaCl and • water ad 100%. • pH 6 is adjusted with NaOH. The surfactant solutions and shampoo formulations tested contain 1% b.w. of the compound of the invention. The cell densities of the bacterial suspensions used as inoculums for the suspension tests are as follows (cfu=colony forming units): [table] The cell density in the test is adjusted to 10^5 cfu/ml. These test mixtures are incubated at room temperature (22° C.+/−2° C.) and aliquots of 1 ml test mixture are taken after set contact times for determination of the residual cell count. For inactivation of the antimicrobial compounds, the 1 ml aliquots are diluted in 1:10 steps with an aqueous solution containing 10% Tween 80 (a polyethoxylated sorbitan ester surfactant), 3% lecithin, 0.1% histidine and 0.5% sodium thiosulfate.

In test [2] the test system is Escherichia coli ATCC 10536. Described as above. The following applies: 24 h, start 10^5 cfu/ml. How it is done:
as §1

Test [3] has as its system Staphylococcus aureus ATCC 6538. The description is as above. The following applies: 24 h, start 10^5 cfu/ml. How it is done:
as §1

Test [4] has as its system Escherichia coli ATCC 10536. Nature of the test: Suspension test, bactericidal activity (modified EN 1040). The settings on record: room temperature, start about 10^7 cfu/ml. The method, then: (§2) The following examples illustrate the invention. Unless indicated otherwise, percentages refer to percent by weight (b.w.), room temperature denotes a temperature from the range 20-24° C. The determination of bactericidal activity and fungicidal activity in surfactants or shampoo formulations of the present invention is measured in a suspension test according to trivial modifications of the European Standard methods EN 1040 and EN 1275, respectively. The bactericidal activity of the compounds of the present invention is measured in a suspension test (trivial modification of the European Standard method EN 1040). Substances listed in Table 1 are tested against gram positive and gram negative bacteria. The compound of the invention is dissolved in ethanol resulting in a 1% b.w. stock solution. The cell densities of the bacterial suspensions used as inoculums for the suspension test are as follows (cfu=colony forming units): [table] For the suspension tests, an appropriate concentration of the test compound is mixed with a bacterial suspension resulting in a final cell count in the mixture of about 10^7 cfu/ml. These test mixtures are incubated at room temperature (22° C.+/−2° C.) and aliquots of 1 ml test mixture containing the test bacteria are taken after set contact times for determination of the residual cell count of test bacteria. For inactivation of the antimicrobial compounds, the 1 ml aliquots are diluted in 1:10 steps with an aqueous solution containing 10% of Tween 80 (a polyethoxylated sorbitan ester surfactant), 3% lecithin, 0.1% histidine and 0.5% sodium thiosulfate.

Test [5] concerns Pseudomonas aeruginosa ATCC15442. Described as above. The following applies: room temperature, start about 10^7 cfu/ml. How it is done:
as §2

Test [6] has as its system Staphylococcus aureus ATCC 6538. Described as above. The settings on record: room temperature, start about 10^7 cfu/ml. The method, then: as §2
The test system of test [7] is Candida albicans AJCC 10231. The experiment in a line: Suspension test of compound in surfactants and shampoo. The settings on record: 24 h, start 10^5 cfu/ml. The method, then:
as §1, with “respectively. The fungicidal activity of the compounds of the present invention is measured in a suspension test (trivial modification of the European Standard method EN 1275).” for “respectively.”

Test [8] has as its system Aspergillus niger ATCC 6275. The test is described as above. The following applies: 7 days, start 10^5 cfu/ml. How it is done: as §1, with “respectively. The fungicidal activity of the compounds of the present invention is measured in a suspension test (trivial modification of the European Standard method EN 1275).” for “respectively.”
Test [9] has as its system Candida albicans ATCC 10231. Nature of the test: Suspension test, fungicidal activity (modified EN 1275), Table A. The following applies: contact time 24 h. The method, then:
The following examples illustrate the invention. Unless indicated otherwise, percentages refer to percent by weight (b.w.), room temperature denotes a temperature from the range 20-24° C. The determination of bactericidal activity and fungicidal activity in surfactants or shampoo formulations of the present invention is measured in a suspension test according to trivial modifications of the European Standard methods EN 1040 and EN 1275, respectively. For the suspension tests, an appropriate concentration of the test compound is mixed with a bacterial suspension resulting in a final cell count in the mixture of about 10^7 cfu/ml. These test mixtures are incubated at room temperature (22° C.+/−2° C.) and aliquots of 1 ml test mixture containing the test bacteria are taken after set contact times for determination of the residual cell count of test bacteria. For inactivation of the antimicrobial compounds, the 1 ml aliquots are diluted in 1:10 steps with an aqueous solution containing 10% of Tween 80 (a polyethoxylated sorbitan ester surfactant), 3% lecithin, 0.1% histidine and 0.5% sodium thiosulfate. The fungicidal activity of the compounds of the present invention is measured in a suspension test (trivial modification of the European Standard method EN 1275). The compound of the invention is dissolved in ethanol resulting in a 1% b.w. solution of the compound. […]

Setting [10] is: 1% b.w. compound in amphoteric surfactant (cocamidopropyl betaine, 10% a.i.).
Setting [11] is: 1% b.w. compound in anionic surfactant (sodium laureth sulfate, 10% a.i.).
[12] abbreviates: 1% b.w. compound in non-ionic surfactant (decyl glucoside, 10% a.i.).
Setting [13] is: 1% b.w. compound in shampoo formulation, pH 6.

As to `CCCCCC(=O)Nc1ccc(O)c(C(=O)O)c1` [compound 596, 5-hexanoylamino-salicylic acid], the log reduction in [1] (setting [10]), in test [1] (setting [11]), in test [1] (setting [12]), in [2] (setting [10]), in test [2] (setting [11]) and in test [2] (setting [12]) was above 3 log throughout. The log reduction is on record as above 3 log in [2] (setting [13]); above 3 log in [3] (setting [10]); above 3 log in test [3] (setting [11]); above 3 log in [3] (setting [12]); above 3 log in [3] (setting [13]); above 5 log in [4] (contact time 30 min). Moreover, the log reduction in [5] (contact time 30 min) was above 5 log; in test [6] (contact time 30 min), above 5 log; in test [7] (setting [10]), above 3 log; in test [7] (setting [11]), 1.2 log; in test [7] (setting [12]), above 3 log; in test [8] (setting [10]) it was 2.3 log. Also, the log reduction in [8] (setting [11]) was 2.1 log; in test [8] (setting [12]), 1.1 log; in test [9], above 4 log. Besides, the residual cell count in test [1] (setting [10]), in test [1] (setting [11]), in test [1] (setting [12]), in test [2] (setting [10]), in test [2] (setting [11]) and in test [2] (setting [12]) was below 100 cfu/ml each time. Moreover, the residual cell count in [2] (setting [13]), in test [3] (setting [10]), in test [3] (setting [11]), in test [3] (setting [12]), in [3] (setting [13]) and in test [4] (contact time 30 min) was below 100 cfu/ml each time. For the same molecule, the residual cell count in [5] (contact time 30 min) is below 100 cfu/ml; in test [6] (contact time 30 min), below 100 cfu/ml; in [7] (setting [10]), below 100 cfu/ml; in test [7] (setting [11]) it was 1.4 × 10^4 cfu/ml; in [7] (setting [12]) it was below 100 cfu/ml; in test [8] (setting [10]) it was 1.2 × 10^3 cfu/ml. In addition, the residual cell count in test [8] (setting [11]) is 1.7 × 10^3 cfu/ml; in test [8] (setting [12]) it was 1.9 × 10^4 cfu/ml; in [9], below 100 cfu/ml.
Turning to `CCCCCCCCCCCC(=O)Nc1ccc(O)c(C(=O)O)c1` [compound 597], in test [6] (contact time 24 h), the log reduction is above 5 log and the residual cell count is 1.6 × 10^3 cfu/ml.
Take `O=C(O)c1cc(NC(=O)C2CCCCC2)ccc1O` [compound 601, 5-cyclohexanoylamino-salicylic acid]: the values for the log reduction in [4] (contact time 24 h), in test [5] (contact time 24 h) and in [6] (contact time 24 h) were 4.3 log, 4.8 log and above 5 log, respectively. Further, the residual cell count in [4] (contact time 24 h) is recorded as 9.1 × 10^2 cfu/ml; in test [5] (contact time 24 h), 6.1 × 10^2 cfu/ml; in test [6] (contact time 24 h), below 100 cfu/ml.
